Literature values as cited in US6488917B2, “Optical brighteners as bleaching agents” (L'Oreal, priority 1998, dated 2002).

Test system: melanocytes
Conditions: known from the prior art

In the case of `Oc1ccc(O)cc1` [hydroquinone], the cytotoxicity towards melanocytes is given as “known for its cytotoxicity towards melanocytes”.
